Test results published in publication PMC4493641, “Enhancement of E. coli acyl-CoA synthetase FadD activity on medium chain fatty acids” (PeerJ, 2015).

Experiments:
[1] = target: T1, FadD (Escherichia coli, UniProt P69451); experiment: coupled AMP production assay (myokinase / pyruvate kinase / lactate dehydrogenase, NADH oxidation at […] nm); format: biochemical; details: 2.5 mM ATP, 0.5 mM CoA, 8 mM MgCl2, 0.1% Triton X-100, pH 7.5, 30 °C; partially purified
T1 construct: full-length, C-terminal His6 tag kept, pETDuet-1 (TJF032), expressed in E. coli BL21*(DE3) delta-fadD, partially purified by Ni-NTA
T1 sequence (P69451 1-561): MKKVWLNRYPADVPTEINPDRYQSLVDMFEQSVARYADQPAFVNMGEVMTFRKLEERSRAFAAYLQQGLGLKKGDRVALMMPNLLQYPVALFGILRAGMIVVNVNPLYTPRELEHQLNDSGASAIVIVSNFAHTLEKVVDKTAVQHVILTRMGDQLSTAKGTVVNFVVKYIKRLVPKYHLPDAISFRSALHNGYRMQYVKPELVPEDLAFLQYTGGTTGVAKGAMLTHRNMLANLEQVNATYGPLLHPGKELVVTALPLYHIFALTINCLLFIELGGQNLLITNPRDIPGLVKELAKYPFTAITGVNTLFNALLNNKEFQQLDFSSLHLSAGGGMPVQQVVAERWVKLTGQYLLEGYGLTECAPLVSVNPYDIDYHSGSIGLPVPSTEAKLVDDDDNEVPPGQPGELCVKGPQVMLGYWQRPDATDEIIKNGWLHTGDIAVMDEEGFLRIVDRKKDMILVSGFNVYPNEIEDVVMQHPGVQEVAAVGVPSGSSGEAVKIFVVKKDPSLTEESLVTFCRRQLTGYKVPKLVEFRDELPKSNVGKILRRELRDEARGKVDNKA

[2] = substrate: CCCCCCCC(=O)O; experiment: purified protein; details: 2.5 mM ATP, 0.5 mM CoA, 8 mM MgCl2, 0.1% Triton X-100, pH 7.5, 30 °C, partially purified

CCCCCCCC/C=C\CCCCCCCC(=O)O [oleate]
Km [1]: Vmax (A) and Km (B) values for the indicated substrates

B1: FadD (Escherichia coli K-12) (protein)
chain: T1 sequence (P69451 1-561)
Km [2]: 422 µM
